Assay results reported in patent US20090074824A1, “STABLE NANOCAPSULE SYSTEMS FOR THE ADMINISTRATION OF ACTIVE MOLECULES” (priority 2006, published 2009).
In brackets after ≈: the same amount, converted by molar mass.

Experiment: physchem

solubility: 5 µg/mL (≈ 10.5 µM)
Structure (SMILES): CCCCC(=O)O[C@]1(C(=O)CO)[C@@H](C)C[C@H]2[C@@H]3CCC4=CC(=O)C=C[C@]4(C)[C@@]3(F)[C@@H](O)C[C@@]21C [betamethasone valerate, Betamethasone valerate]
